The source of these data is PubChem BioAssay (NCI).

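Method: 48-hour compound exposure of cells in 96-well plates, five concentrations, linear interpolation of endpoints. Abbreviation: GI50, concentration required for 50% inhibition of growth. TGI: total growth inhibition.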 Some results are limits rather than exact numbers.

Some test systems named below: A498 renal; HOP-92 NSCLC; MALME-3M melanoma; SF-539 CNS; SK-MEL-5 melanoma; A549 NSCLC; CCRF-CEM leukemia; SK-OV-3 ovarian; UO-31 renal; SNB-19 CNS.
Holding throughout (assay): NCI-60 cell line screen, 48 h

Regarding `COC(=O)c1c2c(c(C)[n+]([O-])c1C)C(=O)C(NCc1ccc(Br)cc1)=CC2=O`, the GI50 was 1.62 µM in the test with A498 renal; 3.07 µM in the test on HOP-92 NSCLC; 0.243 µM with MALME-3M melanoma; 2.13 µM with SF-539 CNS; 0.867 µM with SK-MEL-5 melanoma. Besides, the TGI with A498 renal was found to be 4.35 µM; in the test with HOP-92 NSCLC, 7.15 µM; in the test with MALME-3M melanoma it was 0.8 µM; in the test with SF-539 CNS, 4.75 µM; with SK-MEL-5 melanoma, 2.11 µM.
As for `C=C(C)[C@@H]1CC[C@]2(CN)CC[C@]3(C)[C@H](CC[C@@H]4[C@@]5(C)CCCNC(C)(C)[C@@H]5CC[C@]43C)[C@@H]12`, the GI50 with A498 renal was 1.5 µM; with A549 NSCLC, 1.95 µM; in the test on CCRF-CEM leukemia, 2.27 µM; with HOP-92 NSCLC, 1.69 µM; in the test with MALME-3M melanoma, 1.75 µM; in the test with SF-539 CNS, 1.62 µM. Also, the GI50 with SK-MEL-5 melanoma is 1.56 µM; in the test with SK-OV-3 ovarian, 1.82 µM; in the test with UO-31 renal it was 1.56 µM. Besides, the TGI in the test on A498 renal was 2.92 µM; with A549 NSCLC, 3.71 µM; with CCRF-CEM leukemia it was 4.92 µM; in the test with HOP-92 NSCLC it was 3.28 µM; in the test with MALME-3M melanoma it was 3.63 µM; in the test on SF-539 CNS, 3.09 µM. Besides, the TGI in the test on SK-MEL-5 melanoma came out at 3 µM; in the test on SK-OV-3 ovarian, 3.4 µM; in the test on UO-31 renal, 3.05 µM.
Consider `O=c1[nH]c(=O)n(C2CC(O)C(CO)O2)cc1OS(=O)(=O)C(F)(F)F` (stereo not given), for which the TGI in the test on A498 renal, in the test on A549 NSCLC, with CCRF-CEM leukemia, with HOP-92 NSCLC, in the test on MALME-3M melanoma and in the test on SF-539 CNS was greater than 100 µM in each case. Moreover, the TGI in the test on SK-MEL-5 melanoma, in the test on SK-OV-3 ovarian and with SNB-19 CNS was greater than 100 µM each time.
Regarding `CC12c3ccccc3C(OC=O)(c3ccccc31)C1(C)c3ccccc3C2(OC=O)c2ccccc21`, the TGI is greater than 100 µM in the test with A498 renal; greater than 100 µM with A549 NSCLC; 89.1 µM with CCRF-CEM leukemia; greater than 100 µM in the test on HOP-92 NSCLC; greater than 100 µM in the test with MALME-3M melanoma; greater than 100 µM in the test on SK-MEL-5 melanoma. In addition, the TGI in the test on SK-OV-3 ovarian, with SNB-19 CNS and in the test on UO-31 renal was greater than 100 µM each time.
On to `CCOc1ccc(OCC(=O)O)c2c1CCCC2=O`, for which the TGI in the test with A498 renal, in the test with A549 NSCLC, in the test on HOP-92 NSCLC, in the test on MALME-3M melanoma, in the test with SF-539 CNS and in the test with SK-MEL-5 melanoma was greater than 100 µM throughout. Also, the TGI in the test on SK-OV-3 ovarian, in the test with SNB-19 CNS and in the test on UO-31 renal was greater than 100 µM in each case.
Consider `N#CC(I)CS(=O)(=O)c1ccccc1` (stereo not given), for which the GI50 with A498 renal is 35.4 µM; with A549 NSCLC it was 22.7 µM; with HOP-92 NSCLC it was 13.2 µM; with MALME-3M melanoma, 2.13 µM; with SF-539 CNS, 18.2 µM; in the test on SK-MEL-5 melanoma it was 17.7 µM. Further, the GI50 is greater than 100 µM with SK-OV-3 ovarian, greater than 100 µM in the test with SNB-19 CNS and 12 µM with UO-31 renal. Moreover, the TGI in the test with A498 renal is greater than 100 µM; in the test on A549 NSCLC it was 47.6 µM; in the test with HOP-92 NSCLC, 26.9 µM; with MALME-3M melanoma it was 4.27 µM; in the test on SF-539 CNS it was 32.5 µM; with SK-MEL-5 melanoma it was 31.9 µM. The TGI was greater than 100 µM in the test on SK-OV-3 ovarian, greater than 100 µM in the test on SNB-19 CNS and 25.8 µM with UO-31 renal.
In the case of `COC(=N)c1csc(C2OC(CO)C(O)C2O)n1` (stereo not given), the TGI in the test on A498 renal, with A549 NSCLC, with CCRF-CEM leukemia, in the test on HOP-92 NSCLC, in the test with MALME-3M melanoma and with SF-539 CNS was greater than 100 µM in each case. Also, the TGI in the test on SK-OV-3 ovarian, in the test with SNB-19 CNS and in the test with UO-31 renal was greater than 100 µM throughout.
Turning to `O=c1cccc(C#CC#C[C@@H]2O[C@H]2CO)o1`, the GI50 in the test with A498 renal was 17.7 µM; in the test with A549 NSCLC it was 2.25 µM; with CCRF-CEM leukemia, 0.192 µM; in the test on HOP-92 NSCLC, 1.06 µM; in the test with SF-539 CNS, 1.91 µM; with SK-MEL-5 melanoma it was 1.87 µM. The GI50 in the test on SK-OV-3 ovarian was 4.05 µM; in the test with SNB-19 CNS, 3.36 µM; in the test on UO-31 renal, 1.06 µM. The TGI is 33.3 µM in the test with A498 renal; 4.8 µM in the test on A549 NSCLC; 3.34 µM in the test on HOP-92 NSCLC; 3.68 µM with SF-539 CNS; 3.9 µM in the test with SK-MEL-5 melanoma; 12.6 µM in the test with SK-OV-3 ovarian. The TGI in the test on SNB-19 CNS is 12 µM; with UO-31 renal, 2.88 µM.
For the compound `CCOc1ccc(NC(=O)CC2SC(=Nc3ccc(C)cc3C)NC2=O)cc1` (stereo not given), the TGI with A498 renal is greater than 100 µM; in the test on A549 NSCLC, greater than 100 µM; in the test on CCRF-CEM leukemia, greater than 100 µM; in the test with HOP-92 NSCLC it was greater than 100 µM; in the test with MALME-3M melanoma, greater than 100 µM; in the test with SF-539 CNS it was 63.7 µM. The TGI in the test on SK-MEL-5 melanoma, in the test on SNB-19 CNS and with UO-31 renal was greater than 100 µM each time.
Regarding `COc1cccc2c1O/C(=C\c1ccc([N+](=O)[O-])s1)C2=O`, the GI50 in the test with A498 renal is greater than 100 µM; in the test on A549 NSCLC, 3.29 µM; in the test on CCRF-CEM leukemia, 1.25 µM; in the test with HOP-92 NSCLC it was 1.18 µM; in the test with SF-539 CNS, 3.08 µM; in the test with SK-MEL-5 melanoma it was 2.49 µM. The results for the GI50 in the test on SK-OV-3 ovarian, in the test with SNB-19 CNS and with UO-31 renal were greater than 83.9 µM, 4.21 µM and 1.08 µM, respectively. Besides, the TGI is greater than 100 µM in the test with A498 renal; greater than 100 µM in the test on A549 NSCLC; greater than 23.4 µM with CCRF-CEM leukemia; 3.42 µM in the test on HOP-92 NSCLC; greater than 100 µM in the test with SF-539 CNS; greater than 100 µM in the test on SK-MEL-5 melanoma. Besides, the TGI is greater than 100 µM in the test with SK-OV-3 ovarian, greater than 100 µM with SNB-19 CNS and 3.9 µM in the test with UO-31 renal.
For `Oc1oc(C(=C2N=c3ccccc3=N2)c2ccc(Cl)cc2)c(O)c1-c1ccc(Cl)cc1`, the TGI is 9.06 µM in the test with A498 renal; greater than 100 µM with A549 NSCLC; greater than 100 µM with CCRF-CEM leukemia; 4.47 µM with HOP-92 NSCLC; 7.72 µM in the test on MALME-3M melanoma; 9.91 µM in the test on SF-539 CNS. Also, the figures for the TGI in the test on SK-OV-3 ovarian, in the test on SNB-19 CNS and in the test on UO-31 renal were 11.3 µM, greater than 100 µM and 8.08 µM, respectively.
